Assay results from patent US8734816B2, “Porous nanoparticle supported lipid bilayer nanostructures” (STC.UNM, priority 2009, dated 2014).
Structures can show the parent of a compound that is named as a salt.

Legend:
[1] = Lipid association with mesoporous silica nanoparticles; type: physicochemical; conditions: <20 μg liposome per 0.5 mg silica particles; 5% DHPE-Texas Red label; neutral pH
Procedure: To measure the amount of lipid associated with silica nanoparticles as a function of lipid concentration, about 20 μL aliquots of 25 mg/mL silica nanoparticles were mixed with 1, 2, 3, 5, 7, 10, 20, and 30 μL of 2.5 mg/mL lipids. The lipids tested included DOPC, DOPS and DOTAP, all containing 5% DHPE-Texas Red labels. The mixtures were centrifuged. The Texas Red absorbance from the supernatant and the silica nanoparticles was measured.

[2] = Colloidal stability of the silica/lipid mixture as a function of lipid concentration (dynamic light scattering); type: physicochemical; conditions: at low liposome contents
Procedure: Depending on the relative amount of liposome added, silica particles first aggregated at low lipid concentrations to form large aggregates, which disappeared upon adding more liposomes. […] Similar observations were also reported for polystyrene beads, where aggregation was attributed to liposome mediated nanoparticle assembly at low lipid concentrations. Therefore, to form supported bilayers with good colloidal stability, excess amount of liposomes (50 μg liposome per 0.5 mg silica) were used.

[3] = Quantification of calcein encapsulated / concentration estimation inside mesoporous silica nanoparticles; type: physicochemical; conditions: supported bilayers of different lipids
Procedure: To prepare supported bilayers that encapsulate calcein, the silica nanoparticles were first mixed with 250 μM calcein and liposomes were subsequently added. The remaining procedures were the same as described above.
Mesoporous silica nanoparticles (about 50 mg, no FITC modification) were dispersed in 2 mL water. About 5 μL of 100 mM calcein was added so the final dye concentration was ˜250 μM. The solution was divided into 50 μL aliquots and equal volumes of liposomes of different compositions were mixed to form supported bilayers. The supported bilayers were centrifuged and washed three times with 200 μL of 0.25×PBS to remove free calcein. Finally, about 50 μL of 1% SDS buffer solution was added to the precipitated supported bilayers to disrupt the lipid bilayer and release the calcein dye. About 150 μL of 0.25×PBS was then added to make the final volume to be about 200 μL and the tubes were centrifuged at 15000 rpm for about 2 minutes to precipitate silica nanoparticles. About 10 μL from the supernatant was transferred into a quartz microcuvette with a path length of about 1 cm to measure the absorbance at a wavelength of about 500 nm, which is proportional to the amount of calcein dye retained in the mesoporous silica nanoparticle.
Because the volume of this final solution was about 200 μL, the retained calcein in silica was then about 9 nmol. […]

[4] = system: Chinese Hamster Ovary (CHO) cells; test: Cellular uptake of supported bilayers (protocells); type: cell-based; conditions: green fluorescence of cells
Procedure: Cell Culture: Chinese Hamster Ovary cells (CHO) were obtained from the American Type Culture Collection (ATCC) and maintained in K-12 media supplemented with about 10% fetal bovine serum, about 1% penicillin and about 1% streptomycin. The media were changed every two to three days and the cells were passaged by trypsinization. To prepare samples for confocal imaging, round glass cover slips were used for cell growth. The glass slides were treated with 0.1M KOH for at least 24 hours before use. Cells in the media were dropped onto the cover slips and the slips were kept in Petri dishes. The cells were kept in an incubator at 37° C. with 5% CO2 and 95% humidity. Cellular uptake of supported bilayers (protocells): about 1 mL of serum free media was warmed to about 37° C. and about 10 μL of the above prepared supported bilayers were added and vortexed. To study the uptake of supported bilayers by CHO cells, the cells were grown to ˜70% confluence. The old media was removed and fresh media with supported bilayers were introduced. The cells were incubated for about four hours at about 37° C. and free particles were washed away with PBS and media before imaging. Confocal fluorescence microscopy: A Bio-Rad Radiance 2100 confocal fluorescence microscope system was used for imaging cells. […]

For `CCCCCCCC/C=C\CCCCCCCC(=O)OC[C@H](COP(=O)([O-])OCC[N+](C)(C)C)OC(=O)CCCCCCC/C=C\CCCCCCCC` [DOPC, 1,2-Dioleoyl-sn-Glycero-3-Phosphocholine], the “association of liposomes with silica nanoparticles” value (shortened to “association of liposomes”) [1] was “almost quantitatively associated” and the “average size of particles” value [2] was “significant increase”.

For `CCCCCCCC/C=C\CCCCCCCC(=O)OC[C@H](COP(=O)(O)OC[C@H](N)C(=O)O)OC(=O)CCCCCCC/C=C\CCCCCCCC` [DOPS, 1,2-Dioleoyl-sn-Glycero-3-[Phospho-L-Serine] (Sodium Salt)], the “association of liposomes” value [1] was “did not associate”.

With `CCCCCCCC/C=C\CCCCCCCC(=O)OCC(C[N+](C)(C)C)OC(=O)CCCCCCC/C=C\CCCCCCCC.[Cl-]` (stereo not shown) [DOTAP, 1,2-Dioleoyl-3-Trimethylammonium-Propane (Chloride Salt)] the “association of liposomes” value [1] was “almost quantitatively associated”, the “calcein encapsulation efficiency (comparison of lipids)” value [3] was “highest” and the “average size of particles” value [2] was “significant increase”.

With `O=C(O)CN(CC(=O)O)Cc1cc2c(cc1O)Oc1cc(O)c(CN(CC(=O)O)CC(=O)O)cc1C21OC(=O)c2ccccc21` [calcein] the “uptake of calcein into CHO cells” value [4] was “can not take”.
